Measurements from patent publication US6623933B1 (priority 1999, dated 2003).
Counter-ions that a name gives are not always drawn. Like-named read-outs stand apart in the source and are kept apart here.

Experiments:
Type in all cases: cell-based
GluR3 AMPA receptor = target: T1, GluR3 AMPA receptor (Rattus norvegicus, UniProt P19492); assay: Kainate-induced currents, Xenopus oocytes injected with GluR3 cRNA
T1 construct: expressed in transfected cells; host or cells: Xenopus oocytes injected with GluR3 cRNA
From the text: Plasmids were obtained from the following individuals: Dr. Suzanne Zukin (Albert Einstein College of Medicine, Bronx, N.Y.), NR1100; Dr. Shigetada Nakanishi (Kyoto University Faculty of Medicine, Kyoto, Japan), NR2A; Dr. Stephen Heinemann (Salk Institute, San Diego, Calif.), GluR1 (flop), GluR3 (flop), and GluR6. Plasmids were linearized with BamH1 (NR1100), XhoI (NR2A, GluR1, GluR3) or XbaI (GluR6) prior to in vitro transcription with T3 (GluR1, GluR3, GluR6) or T7 (NR1100, NR2A) RNA polymerase using the Message Machine kit (Ambion, Austin, Tex.). […] RNA solutions (50-70 nl) were injected into oocytes for delivery of NR1100 (5 ng), NR1100:NR2A (1:10 ng), GluR1 (5 ng). GluR3 (5 ng), or GluR6 (20 ng). Oocytes were incubated in ND96 at 18-20° C. for 3-7 days prior to electrophysiological recording.
Steroid solutions were prepared as 70-100 mM frozen stocks in dimethyl sulfoxide (DMSO). The final DMSO concentration of all recording solutions was between 0.1% to 0.5% and was constant within an experiment.
Perfusion control and data acquisition were carried out using an automated oocyte electrophysiology workstation that was developed for the rapid collection of concentration-response data and real-time waveform analysis (Yaghoubi et al., Soc. Neurosci. Abstr. 20: 1109 (1995)). This system is implemented on a Macintosh IIci computer (Apple Computer, Cupertino, Calif.) equipped with MacA-DIOS II data acquisition and control hardware (GW Instruments, Somerville, Mass.). Drug application is controlled by the computer through a series of valves, using custom-written software based on the SuperScope II development environment, improving the efficiency and reproducibility of data collection. Experiments were carried out using an Axoclamp-2A voltage clamp amplifier (Axon Instruments, Foster City, Calif.) in two-electrode voltage clamp mode. Intracellular microelectrodes (1-3 MΩ) were filled with 3 M KCl. […] Membrane potential was clamped at −60 to −70 mV and stepped to −100 mV at the start of data acquisition unless otherwise stated. […] Current and voltage recordings were digitized at 100 Hz for analysis. GluR6 injected oocytes were treated for 10 min with 10 μg/ml concanavalin A to prevent fast desensitization.
Results are expressed as mean±S.E.M. Statistical comparisons were made using Student's t-test.

[1] = tested on: primary cultures of rat hippocampal neurons; assay: NMDA-induced increase in [Ca2+]i, Fluo-3 AM; conditions: 5 μM NMDA; steroid 100 μM (3α5β 50 μM)
Procedure: Principally neuronal cultures were prepared from hippocampal tissue of fetal Sprague-Dawley rats on day 18 of embryonic development, as previously described (Brewer et al., Brain Research 494: 65-74 (1989)). Briefly, hippocampal cells were dissociated by trituration in Ca^2+/Mg^2+-free Hank's basic salt solution (Gibco) supplemented with 4.2 mM bicarbonate, 1 mM sodium pyruvate, 20 mM HEPES, 3 mg/ml bovine serum albumin (BSA). Dissociated cells were then pelleted by centrifugation (500×g, 4 min). […] Cells were then plated onto poly-L-lysine-coated 24-well culture dishes (Nunclon) at a density of 15,000 cell/cm^2 and maintained in a humidified atmosphere containing 5% CO2/95% air at 37° C. After 48 h, nonneuronal cell division was inhibited by a 48 h exposure to 1 μM cytosine arabinoside. Cultures were subsequently maintained in serum-free DMEM plus defined components and were used for experiments 16 to 24 days after plating.
DMSO was also added to controls to maintain a constant final DMSO concentration of […].
All data are expressed as mean±standard error of the mean. Statistical significance was evaluated using 95% confidence limits unless otherwise noted.

[2] = tested on: primary cultures of rat hippocampal neurons; assay: NMDA-induced neuronal death, trypan blue exclusion
NR1111/NR2A = assay: NMDA-induced currents of NR1 splice variants, Xenopus oocytes, Example 4
Procedure: Overnight cultures (500 ml) of transformed bacterial cells were prepared in order to grow sufficient quantities for maxiprep isolation of the plasmid CDNA. Maxipreps were done using a Sorvall RC-5B ultracentrifuge, Qiagen columns and cDNA was quantitated with spectrophotometry (OD260 and OD260/ OD280 ratio). The resulting plasmid cDNA was linearized by digestion with an appropriate restriction enzyme that cleaves distal to the cDNA insert (XhoI for NR2A or NotI for NR1100, NR1000, NR1111, NR1011, NR1101, NR1001). […] The samples were stored at −20° C. until use.
In vitro transcription was performed using the Ambion mMessage mMachine kit with T7 (NR1100, NR1000, NR1111, NR1011, NR1101, NR1001) RNA polymerase. The reaction was assembled on ice and allowed to incubate at 37° C. for 1-2 hr. The resulting mRNA was precipitated (reaction termination) using lithium chloride/5 mM EDTA solution and dissolved in RNase-free H2O. The concentration (OD260) and OD260/OD280 ratio (should be more than 1.5) was determined by spectrophotometer. The yield of mRNA was generally 15-30 μg. mRNA was stored at −80° C. until use.
Intracellular recording microelectrodes were fabricated from 100 μl borosilicate glass disposable micropipettes using a 2-step protocol on a standard horizontal Flaming-Brown micropipette puller.

[3] = acute 15 min NMDA exposure, +100 μM 3α5βS
[4] = acute 15 min NMDA exposure, DMSO vehicle
[5] = chronic 16 hour NMDA exposure, +100 μM 3α5βS
[6] = chronic 16 hour NMDA exposure, DMSO vehicle

T1 sequence (P19492 23-888): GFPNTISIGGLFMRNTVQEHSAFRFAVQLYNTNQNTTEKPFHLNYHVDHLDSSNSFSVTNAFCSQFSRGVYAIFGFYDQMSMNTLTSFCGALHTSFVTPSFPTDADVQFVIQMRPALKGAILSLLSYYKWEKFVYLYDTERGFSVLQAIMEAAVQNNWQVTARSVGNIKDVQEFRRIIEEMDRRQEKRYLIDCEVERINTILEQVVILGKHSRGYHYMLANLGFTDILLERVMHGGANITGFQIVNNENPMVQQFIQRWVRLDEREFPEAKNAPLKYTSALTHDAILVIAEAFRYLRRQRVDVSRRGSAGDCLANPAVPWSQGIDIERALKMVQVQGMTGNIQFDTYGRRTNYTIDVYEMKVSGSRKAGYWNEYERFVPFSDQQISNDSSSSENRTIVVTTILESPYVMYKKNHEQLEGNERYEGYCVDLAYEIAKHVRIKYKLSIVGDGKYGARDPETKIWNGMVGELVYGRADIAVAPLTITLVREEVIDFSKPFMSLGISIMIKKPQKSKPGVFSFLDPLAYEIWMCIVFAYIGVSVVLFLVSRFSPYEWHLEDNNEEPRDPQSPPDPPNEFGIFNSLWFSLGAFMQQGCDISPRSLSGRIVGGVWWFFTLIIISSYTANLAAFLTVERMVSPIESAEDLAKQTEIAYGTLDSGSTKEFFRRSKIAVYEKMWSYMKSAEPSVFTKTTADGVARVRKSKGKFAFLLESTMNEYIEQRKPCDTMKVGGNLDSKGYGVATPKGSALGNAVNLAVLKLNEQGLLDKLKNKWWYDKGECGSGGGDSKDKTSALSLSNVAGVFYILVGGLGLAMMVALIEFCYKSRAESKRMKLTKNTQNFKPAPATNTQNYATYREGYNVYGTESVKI

CC(=O)[C@H]1CC[C@H]2[C@@H]3CC[C@@H]4C[C@H](OS(=O)(=O)O)CC[C@]4(C)[C@H]3CC[C@]12C [3α5βS, 3α5β-pregnanolone sulfate]
Percentage change in kainate response (GluR3 AMPA receptor): −63 ± 8(4) % | reduction of NMDA-induced rise in [Ca2+]i [1]: 32±5% | EC50 ([2]; Rattus norvegicus, Hippocampal neuron, read-out: 3α5βS EC50, inhibition of NMDA-induced neuronal death): 45 µM | 3α5βS nH, inhibition of neuronal death ([2]; acute 30 μM NMDA exposure): 2.5 | maximal inhibition (Imax) of cell death ([2]; acute 30 μM NMDA exposure): 97% | inhibition of NMDA-induced neuronal death ([2]; acute 30 μM NMDA, steroid 100 μM (3α5β 50 μM)): nearly eliminates the toxic effects | difference in percentage inhibition between NR1011/NR2A and NR1111/NR2A (NR1111/NR2A; 100 μM 3α5βS): 5%

pregnenolone sulfate [PS]
PS Emax, percentage change in kainate-induced current (GluR3 AMPA receptor; GluR3, 100 μM kainate): −90% | inhibition of kainate response (GluR3 AMPA receptor; GluR3, 200 μM PS): 81±3% | reduction of kainate Imax (GluR3 AMPA receptor; GluR3, PS 100 μM): 71% | inhibition of the response to kainate (GluR3 AMPA receptor; GluR3, steroid 100 μM): over 70% | Percentage change in kainate response (GluR3 AMPA receptor; GluR3, steroid 100 μM, 100 μM kainate, −100 mV): −73 ± 3(8) % | difference in mrc between NR1011/NR2A and NR1111/NR2A (NR1111/NR2A): 1.2 fold | difference in mrc between NR1011/NR2A and NR1111/NR2A (NR1111/NR2A; 100 μM PS, pH 6.5): 1.8 fold | difference in mrc between NR1011/NR2A and NR1111/NR2A (NR1111/NR2A; 100 μM PS, pH 7.5): 1.6 fold | difference in percentage potentiation between NR1011/NR2A and NR1111/NR2A (NR1111/NR2A; 100 μM PS, pH 7.5): 106% | difference in percentage potentiation between NR1011/NR2A and NR1111/NR2A (NR1111/NR2A; 100 μM PS, pH 8.5): 91%

CN[C@H](CC(=O)O)C(=O)O [NMDA, N-methyl-D-aspartate]
NMDA Emax, neuronal death [2, 3]: 63% | NMDA nH, neuronal death [2, 3]: 1.8 | NMDA Emax, neuronal death [2, 4]: 80% | NMDA nH, neuronal death [2, 4]: 2.1 | NMDA Emax, neuronal death [2, 5]: 70% | NMDA nH, neuronal death [2, 5]: 2.0 | NMDA Emax, neuronal death [2, 6]: 86% | NMDA nH, neuronal death [2, 6]: 1.9 | EC50 ([2]; read-out: NMDA EC50 for neuronal death, acute 15 min NMDA exposure, +100 μM 3α5βS): 71 µM | EC50 ([2]; read-out: NMDA EC50 for neuronal death, acute 15 min NMDA exposure, DMSO vehicle): 28 µM | EC50 ([2]; read-out: NMDA EC50 for neuronal death, chronic 16 hour NMDA exposure, +100 μM 3α5βS): 15 µM
